For this experiment, the target named is T1, SHP2 protein (Homo sapiens, UniProt Q06124).
T1 sequence (Q06124 1-593): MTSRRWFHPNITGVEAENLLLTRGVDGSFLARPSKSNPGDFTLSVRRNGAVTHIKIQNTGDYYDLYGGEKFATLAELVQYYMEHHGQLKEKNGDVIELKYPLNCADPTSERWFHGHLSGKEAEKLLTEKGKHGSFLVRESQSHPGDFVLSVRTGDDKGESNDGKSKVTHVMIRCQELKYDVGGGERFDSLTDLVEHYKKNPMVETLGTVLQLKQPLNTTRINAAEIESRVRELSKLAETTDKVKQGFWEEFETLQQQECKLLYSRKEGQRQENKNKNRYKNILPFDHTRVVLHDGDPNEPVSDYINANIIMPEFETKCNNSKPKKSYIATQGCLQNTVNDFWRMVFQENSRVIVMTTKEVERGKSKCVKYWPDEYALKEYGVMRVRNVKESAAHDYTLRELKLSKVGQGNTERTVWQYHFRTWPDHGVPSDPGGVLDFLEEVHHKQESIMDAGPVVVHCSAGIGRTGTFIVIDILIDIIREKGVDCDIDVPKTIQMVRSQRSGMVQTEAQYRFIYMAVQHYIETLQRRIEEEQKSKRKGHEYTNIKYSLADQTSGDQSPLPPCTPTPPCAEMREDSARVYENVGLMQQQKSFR
Put plainly: Measurement of SHP2 protein degradation in MV-4-11 cells (western blotting). Particulars: MV-4-11 cells, 24 hours. Details: endogenous in cells; host or cells: MV-4-11. It is filed as cell-based. On the procedure: Experimental Example 2: Measurement of SHP2 Protein Degradation in MV-4-11 Cells
MV-4-11 cells were treated with the synthesized Example compound, and the amount of SHP2 protein present in the cells was measured using western blotting detection. The protocol of the experiment conducted using MV-4-11 cells was as follows:
[Culture] MV-4-11 cells resuspended in IMDM MEDIUM (Hyclone, SH30228.01) containing 5% FBS (Hyclone, SV30207.02) and 1% Penicillin-streptomycin (Welgene, LS 202-02) were seeded at a density of 1×10^6/mL/well in a 12-well plate in an amount of 1 ml each.
[Compound treatment] The 12-well plate was treated as follows: Cells were treated with compounds at a final concentration of […] made by serial dilution of 10 mM stock with DMSO in 1/100 increments […]. After 24 hours, cells were harvested. For the negative control group, DMSO diluted 1/100 to the media (3 mL DMSO+297 mL media) was added.
[Harvest] Each well was collected in a 1.5 mL microtube by pipetting with a 1 mL pipette and centrifuged (500 g, 5 min, 4° C.). The supernatant was removed. It was washed with PBS, and then centrifuged again (500 g, 5 min, 4° C.). Thereafter, the supernatant was removed to prepare a pellet.
[Cell Lysis and Sample preparation] Lysis buffer was prepared as follows: […] of RIPA buffer (Biosesang, RC2038-050-00)+0.5 mM PMSF (SIGMA, P7626)+1× Protease/Phosphatase Inhibitor (Cell signaling, 5872S) per well was added and placed on ice for 30 minutes (vortexing at 0 and 30 minutes, respectively). After sonication process (10 seconds pulse, 30 seconds rest, 5 cycles, 70% amplification), centrifugation (15000 g, 15 min, 4° C.) was performed, and then only the supernatant was taken and transferred to a microtube. The sample was diluted ¼ with RIPA buffer in a 96-well plate, and mixed with A:B=50:1 of the BCA Protein Assay Kit (iNtRON, 21071). […] each of the mixture was left at 37° C. for 30 minutes, and cooled for 10 minutes. Then, absorbance was measured at 562 nm with the SYNERGY H1 microplate reader from BioTek. After making a sample by quantifying the protein with the measured value, boiling was performed at 70° C. for 10 minutes. At this time, the sample buffer used was a mixture of NuPAGE or Bolt 4× sample buffer (Invitrogen) and each 10× sample reducing agent according to the gel to be used, and RIPA buffer was used for protein dilution.
[Western blotting detection method] The same amount of sample was loaded on NuPAGE or Bolt Bis-tris 4-12% gradient gel and run (200 V, 35 minutes). It was transferred to 0.2 mm NC membrane with Trans-blot Turbo (BIO-RAD) (1.3 A constant, 25 V limit, 15 minutes). Blocking was performed at room temperature for 1 hour with Skim milk or Intercept Blocking Buffer (LI-COR, 927-60001):0.1% TBST=1:1. Anti-SHPTP2 Mouse (1:500 in 2% BSA/0.2% TBST, size: 70 kDa, Santacruz sc-7384) was incubated overnight at 4° C., and Anti-GAPDH Rabbit (1:2,000 in 2% BSA/0.2% TBST, size: 37 kDa, CST #2118) was incubated at room temperature for 1 hour 30 minutes or 3 hours. It was washed 3 times for 5 minutes each with 0.2% TBST washing buffer. Secondary antibody Anti-Rabbit IgG (1:5,000 in 2% BSA/0.2% TBST, CST), IRDye® 680RD Goat anti-Rabbit IgG Secondary Antibody (1:10,000 in 2% BSA/0.2% TBST, LI-COR 926-68071) were added and incubated for 45 minutes on a rocker at room temperature. It was washed 5 times for 5 minutes each with 0.2% TBST washing buffer and detected with LI-COR's Odyssey. At this time, SHPTP2 was detected using SuperSignal West Pico PLUS Chemiluminescent Substrate, and house-keeping genes were also detected.
In the results of Table 4 below, Compounds 1-7, 13-19, and 21-26 are results in KYSE-520 cells, and the others are results in MV-4-11 cells.

Take `Cc1ncsc1-c1ccc(CNC(=O)[C@@H]2C[C@@H](O)CN2C(=O)[C@@H](NC(=O)C2(F)CC2)C(C)(C)C)c(OCCC2CCN(C(=O)CC(=O)Nc3cccc(Sc4ncc(N5CCC(C)(CN)CC5)nc4N)c3Cl)CC2)c1` [Example 37, (2S,4R)—N-(2-(2-(1-(3-((3-((3-amino-5-(4-(aminomethyl)-4-methylpiperidin-1-yl)pyrazin-2-yl)thio)-2-chlorophenyl)amino)-3-oxopropanoyl)piperidin-4-yl)ethoxy)-4-(4-methylthiazol-5-yl)benzyl)-1-((S)-2-(1-fluorocyclopropane-1-carboxamido)-3,3-dimethylbutanoyl)-4-hydroxypyrrolidine-2-carboxamide]: the “SHP2 degradation (%) 10 nM” value worked out at 80.5%, the “SHP2 degradation (%) 100 nM” value is 89.5% and the “SHP2 degradation (%) 1000 nM” value is recorded as 90.5%.
For `CC(=O)N[C@H](C(=O)N1C[C@H](O)C[C@H]1C(=O)NCc1ccc(-c2scnc2C)cc1OCCC1CCN(C(=O)CC(=O)Nc2cccc(Sc3cnc(N4CCC(C)(CN)CC4)cn3)c2Cl)CC1)C(C)(C)C` [Example 38, (2S,4R)-1-((S)-2-acetamido-3,3-dimethylbutanoyl)-N-(2-(2-(1-(3-((3-((5-(4-(aminomethyl)-4-methylpiperidin-1-yl)pyrazin-2-yl)thio)-2-chlorophenyl)amino)-3-oxopropanoyl)piperidin-4-yl)ethoxy)-4-(4-methylthiazol-5-yl)benzyl)-4-hydroxypyrrolidine-2-carboxamide], in that order: 86%, 93% and 93.5%.
Regarding `Cc1ncsc1-c1ccc(CNC(=O)[C@@H]2C[C@@H](O)CN2C(=O)[C@@H](NC(=O)C2(F)CC2)C(C)(C)C)c(OCCCC2CCN(C(=O)CC(=O)Nc3cccc(Sc4ncc(N5CCC(C)(N)CC5)nc4N)c3Cl)CC2)c1` [Example 40, (2S,4R)—N-(2-(3-(1-(3-((3-((3-amino-5-(4-amino-4-methylpiperidin-1-yl)pyrazin-2-yl)thio)-2-chlorophenyl)amino)-3-oxopropanoyl)piperidin-4-yl)propoxy)-4-(4-methylthiazol-5-yl)benzyl)-1-((S)-2-(1-fluorocyclopropane-1-carboxamido)-3,3-dimethylbutanoyl)-4-hydroxypyrrolidine-2-carboxamide], the “SHP2 degradation (%) 10 nM” value is on record as 67.0% and the “SHP2 degradation (%) 100 nM” value was determined as 95.0%.
`Cc1ncsc1-c1ccc(CNC(=O)[C@@H]2C[C@@H](O)CN2C(=O)[C@@H](NC(=O)C2(F)CC2)C(C)(C)C)c(OCCCC2CCN(C(=O)CC(=O)Nc3cccc(Sc4cnc(N5CCC(C)(CN)CC5)cn4)c3Cl)CC2)c1` [Example 41, (2S,4R)—N-(2-(3-(1-(3-((3-((5-(4-(aminomethyl)-4-methylpiperidin-1-yl)pyrazin-2-yl)thio)-2-chlorophenyl)amino)-3-oxopropanoyl)piperidin-4-yl)propoxy)-4-(4-methylthiazol-5-yl)benzyl)-1-((S)-2-(1-fluorocyclopropane-1-carboxamido)-3,3-dimethylbutanoyl)-4-hydroxypyrrolidine-2-carboxamide]: the “SHP2 degradation (%) 10 nM” value was found to be 77.0%, the “SHP2 degradation (%) 100 nM” value amounted to 92.5% and the “SHP2 degradation (%) 1000 nM” value is listed as 91.5%.
With `Cc1ncsc1-c1ccc(CNC(=O)[C@@H]2C[C@@H](O)CN2C(=O)[C@@H](NC(=O)C2(F)CC2)C(C)(C)C)c(OCCCC2CCN(C(=O)CC(=O)Nc3cccc(Sc4ncc(N5CCC(C)(CN)CC5)nc4N)c3Cl)CC2)c1` [Example 42, (2S,4R)—N-(2-(3-(1-(3-((3-((3-amino-5-(4-(aminomethyl)-4-methylpiperidin-1-yl)pyrazin-2-yl)thio)-2-chlorophenyl)amino)-3-oxopropanoyl)piperidin-4-yl)propoxy)-4-(4-methylthiazol-5-yl)benzyl)-1-((S)-2-(1-fluorocyclopropane-1-carboxamido)-3,3-dimethylbutanoyl)-4-hydroxypyrrolidine-2-carboxamide], the “SHP2 degradation (%) 10 nM” value is on record as 73.5% and the “SHP2 degradation (%) 100 nM” value worked out at 95.0%.
In the case of `CC(=O)N[C@H](C(=O)N1C[C@H](O)C[C@H]1C(=O)NCc1ccc(-c2scnc2C)cc1OCCCC1CCN(C(=O)CC(=O)Nc2cccc(Sc3cnc(N4CCC(C)(CN)CC4)cn3)c2Cl)CC1)C(C)(C)C` [Example 43, (2S,4R)-1-((S)-2-acetamido-3,3-dimethylbutanoyl)-N-(2-(3-(1-(3-((3-((5-(4-(aminomethyl)-4-methylpiperidin-1-yl)pyrazin-2-yl)thio)-2-chlorophenyl)amino)-3-oxopropanoyl)piperidin-4-yl)propoxy)-4-(4-methylthiazol-5-yl)benzyl)-4-hydroxypyrrolidine-2-carboxamide], the “SHP2 degradation (%) 10 nM” value came out at 80.0% and the “SHP2 degradation (%) 100 nM” value was 96.5%.
`Cc1ncsc1-c1ccc(CNC(=O)[C@@H]2C[C@@H](O)CN2C(=O)[C@@H](NC(=O)C2(F)CC2)C(C)(C)C)c(OCC2CCN(C(=O)CCC(=O)Nc3cccc(Sc4cnc(N5CCC(C)(CN)CC5)cn4)c3Cl)CC2)c1` [Example 44, (2S,4R)—N-(2-((1-(4-((3-((5-(4-(aminomethyl)-4-methylpiperidin-1-yl)pyrazin-2-yl)thio)-2-chlorophenyl)amino)-4-oxobutanoyl)piperidin-4-yl)methoxy)-4-(4-methylthiazol-5-yl)benzyl)-1-((S)-2-(1-fluorocyclopropane-1-carboxamido)-3,3-dimethylbutanoyl)-4-hydroxypyrrolidine-2-carboxamide]: the “SHP2 degradation (%) 10 nM” value stood at 71.5%, the “SHP2 degradation (%) 100 nM” value is on record as 95% and the “SHP2 degradation (%) 1000 nM” value amounted to 95.5%.
Regarding `Cc1ncsc1-c1ccc(CNC(=O)[C@@H]2C[C@@H](O)CN2C(=O)[C@@H](NC(=O)C2(F)CC2)C(C)(C)C)c(OCCC2CCN(C(=O)CCC(=O)Nc3cccc(Sc4cnc(N5CCC(C)(CN)CC5)cn4)c3Cl)CC2)c1` [Example 45, (2S,4R)—N-(2-(2-(1-(4-((3-((5-(4-(aminomethyl)-4-methylpiperidin-1-yl)pyrazin-2-yl)thio)-2-chlorophenyl)amino)-4-oxobutanoyl)piperidin-4-yl)ethoxy)-4-(4-methylthiazol-5-yl)benzyl)-1-((S)-2-(1-fluorocyclopropane-1-carboxamido)-3,3-dimethylbutanoyl)-4-hydroxypyrrolidine-2-carboxamide], the “SHP2 degradation (%) 10 nM” value was 68.0%, the “SHP2 degradation (%) 100 nM” value is 91.0% and the “SHP2 degradation (%) 1000 nM” value is listed as 93.0%.

Values taken from patent US20250230154A1, “COMPOUND HAVING SHP2 PROTEIN DEGRADING ACTIVITY, AND MEDICAL USES THEREOF” (UBIX THERAPEUTICS, INC., priority 2021, published 2025).
